Results: patent publication US5157052A, “Method for inhibiting IgE production” (priority 1990, dated 1992)
“Also recorded” adds a separate entry of the source.

Legend:
[1] = tested on: IgE; assay: Serum IgE response induced by FF1-4D5 + H∂A1 anti-IgD antibodies (ELISA, Assay A / Assay F); assay type: in vivo, mouse (Balb/c female)
Experimental: Mouse hybridoma cells expressing either FF1-4D5 antibody or H∂A1 antibody are thawed, established in culture, and incubated in mice as ascite tumors. FF1-4D5 antibody is a mouse IgG2a monoclonal antibody of the b allotype that binds the Fd fragment of the ∂ chain of the a allotype IgD which activates β cells through antigen internalization and processing, promoting cognate interactions with antigen-specific T cells (D. K. Goroff et al., J. Immunol. 136: 2382 (1986)). H∂A1 antibody is a mouse IgG2b of the b allotype that binds the Fc fragment of the ∂ chain of the a allotype IgD which activates β cells through crosslinking IgD (I. M. Zitron and B. L. Clevinger, J. Exp. Med. 152: 1135 (1980)). Each antibody is purified from their respective ascites tumor fluid. […] Serum from the injected mice is recovered and the mean concentration of IgE determined.
Serum levels of IgE are determined and IgE levels are shown to be inhibited in a dose dependent manner.
(§1) ELISA (enzyme linked immunosorbant assay) measurements of IgE are as follows. About 5 μg of B1E3 antibody in 100 μl borate buffered saline (pH8.5) is added to wells of a NuncImmulon II 96 well plate (DiRuscio & Assoc., St. Louis, Mo.) at 37° C. for 90 minutes. The non-bound antibody is removed by flicking the plate. Unreacted sites on the plastic plate are blocked by adding about 200 μl of a 2% solution of newborn bovine serum (NBS) in PBS at 37° C. for 60 minutes. The standard IgE (or an unknown murine serum sample) is diluted to between about 4 ng/ml-256 ng/ml in Hanks-HS (20 mM Hepes, 2% NBS in Hanks Balanced Salt Solution, Gibco, Grand Island, N.Y.) or to 1/200 to 1/1000 in Hanks-HS respectively. 100 μl of standard (or unknown dilutions) are added in triplicate to the wells of the plate and allowed to absorb to B1E3 antibody at about 37° C. for 2-4 hours. The solution is removed by flicking the plate and each well is washed with about 0.5 ml 0.05% Tween 20-PBS 5 times. About 100 μl of biotinylated R1E4, called the primary antibody, diluted to 200 ng/ml is added to all wells and incubated at about 4° C. overnight. The solution is removed by flicking the plate and washed 5 times as described above. The developing reagent (Avidin and biotin-horse radish peroxidase) is incubated in 2% NBS in PBS at ambient temperature for 30 minutes, according to manufacturer's specifications (Vector Laboratories, Burlingame, Calif.). About 100 μl of developing reagent is added to each well and incubated at ambient temperature for 30 minutes. Colorimetric substrate for the developing reagent (ABTS peroxidase substrate system, KPL, Gaithersburg, Md.) is prepared by mixing equal volumes of solutions A and B and incubating at ambient temperature for 60 minutes. The developing reagent solution is removed by flicking the plate and washed 5 times as described above. About 100 μl of the mixture of substrates is added to each well and incubated at ambient temperature for 60 minutes. The optical density of each well is determined on a BioTek ELISA reader (Biotek Instruments, Inc., Burlington, Vermont) and the absorbance data transferred electronically to a DEC VAX mainframe computer. A standard curve is fitted to the IgE standard optical densities using straight line, linear regression statistical fits. IgE in the unknown serum samples is determined by comparing the optical density of the unknown to the standard curve and multiplying that number by the dilution of serum used in the assay.
Stimulation of a transient serum IgE response in mouse with two monoclonal antibodies directed against IgD is carried out as follows.
Mouse hybridoma cells expressing either FF1-4D5 antibody or H∂Al antibody are thawed, established in culture, and incubated in CB6 F1 female mice as an ascites tumor and each immunoglobulin is purified from the ascites fluid as described above. […]

[2] = tested on: IgE; assay: In vitro IgE inhibition; assay type: cell-based
[3] = tested on: IgE; assay: Inhibition of de novo IgE synthesis after oral (intragastric) administration; assay type: in vivo, mouse (Balb/c female); conditions: for IgE ± SD: 20 μg intragastric TID days 3 and 4
Experimental: as §1
Three groups of 4 Balb/c female mice per group are injected with both 100 μg FF1-4D5 antibody and 100 μg H∂A1 antibody (Groups B, C, and D). Another group of 4 Balb/c female mice is injected with PBS alone, unstimulated control Group A. One of the stimulated group were not given any prostaglandin control Group B. On day 3 and 4, individual groups receive an intragastric feeding TID of 0.25 ml of 20 μg of (±) methyl 11α,16-dihydroxy-16-methyl-9-oxoprosta-5Z,13E-dien-1-oate (Group C) or 20 μg of prostaglandin E2 (Group D) dissolved in PBS.

[4] = tested on: IgE; assay: ED50 for inhibition of IgE calculated from the examples; assay type: in vivo, mouse; conditions: for ED50 IgE Inhibition: dose to achieve 50% inhibition of IgE
Experimental: From the data in the above examples, the effective dose of each prostaglandin to achieve 50% inhibition of IgE (ED50) was calculated.

[5] = J. Pene et al., 1988; cited from earlier work
[6] = rat, in vivo
Experimental: (§2) Briefly, adult Charles River male rats weighing 210-230 g were individually housed and fasted with water available ad libitum for 24 hours prior to the test. The animals (N=6-12) received logarithmically graded prostaglandin doses orally. Immediately after administration, the animals were returned to their cages, and diarrhea, if any, was assessed on an all or none basis for 8 hours after drug treatment. The ED50 and relative potency values were calculated by the logistic method of Berkson.

[7] = Diarrheal effects in rats; conditions: rat, in vivo, po
Experimental: as §2

[8] = tested on: IgM; assay: Serum IgM in anti-IgD stimulated mice (two site sandwich ELISA, Assay E); assay type: in vivo, mouse (Balb/c female); conditions: 20 μg IP 3x daily days 3 and 4
Experimental: Sera from mice treated with compounds in accordance with the method of the invention are analyzed for levels of IgG1, IgG2a, IgG3, and IgM.
Measurement of mouse IgM by a two site sandwich ELISA is performed in substantial accordance with the teachings of Assay B except for the following changes. About 250 ng of rabbit anti-mouse IgM (Zymed Laboratories) is used to coat a NuncImmulon 96 well plate. The IgM standard is purchased from Southern Biotech. The standard curve is linear between 8-500 ng/ml. Serum containing IgM is diluted 1/4,000 to 1/60,000. About a 1/10,000 dilution of goat anti mouse IgM conjugated to horse radish peroxidase is used as a combined primary antibody and developing reagent. 100 μl is added to each well and the plate is incubated at about 4° C. overnight. The colorimetric substrate is prepared and used as described in Assay A.
Two groups of 4 Balb/c female mice per group are injected with both 100 μg FF1-4D5 antibody and 100 μg H∂Al antibody. On day 3 and 4 the mice are injected with PBS (Group A) or 20 μg (±) methyl 11α,16-dihydroxy-16-ethyl-9-oxoprosta-5Z,13E-dien-1-oate (Group B) at 7 a.m., 1 p.m. and 7 p.m. in substantial accordance with the teaching of Example 13. On day -1, 7, 8, 9 and 11, 50-100 μl of serum is recovered and analyzed for IgE by Assay A and for IgM by Assay E. The results are shown in Table 6.
Three groups of 5 Balb/c female mice per group are injected with both 100 μg FF1-4D5 antibody and 100 μg H∂A1 antibody on day 0. Group A is a control with no further treatment. On day 3 and 4, the mice are injected with 20 μg (±) methyl 11α,16-dihydroxy-4,4,16-trimethyl-9-oxoprosta-13E-en-1-oate (Group B) or 20 μg (±) methyl 11α,16-dihydroxy-16-methyl-9-oxoprosta-3,5Z,13E-trien-1-oate (Group C) as in Example 13. On day -1 and 8, […] of serum is recovered and analyzed for IgE, IgG1, IgG2a, IgG3 and IgM by Assays A, B, C, D and E, respectively.

[9] = tested on: leukocyte membrane proteins; assay: Cell surface density or distribution of leukocyte membrane proteins, overall; assay type: in vivo, mouse (Balb/c female); conditions: unstimulated mice, 20 μg
[10] = Table 9, 20 μg IP days 3 and 4, day 8 (control 3539)
[11] = Table 9, 20 μg IP days 3 and 4, day -1 baseline before treatment
[12] = day -1 baseline before treatment

CCCCC[C@H](O)/C=C/[C@H]1[C@H](O)CC(=O)[C@@H]1CCCCCCC(=O)O [prostaglandin E1, reference compound]
inhibition of de novo IgE synthesis in vivo ([1]; 20 μg days 3 and 4): lack of inhibition
IgE ± SD [1, 10]: 2958 ± 717 ng/mL
IgE ± SD [1, 11]: < 800 ng/mL
inhibition of IgE in vivo ([1]; summary statement): only low inhibition in vivo
inhibition of IgE in vitro [2]: exhibit inhibition of IgE in vitro

CCCCC[C@H](O)/C=C/[C@H]1[C@H](O)CC(=O)[C@@H]1C/C=C\CCCC(=O)O [prostaglandin E2]
inhibition of de novo IgE synthesis in vivo ([1]; 20 μg days 3 and 4): lack of inhibition
IgE ± SD [1, 10]: 3340 ± 384 ng/mL
IgE ± SD [1, 11]: 897 ± 194 ng/mL
inhibition of IgE in vivo ([1]; summary statement): only low inhibition in vivo
inhibition of de novo IgE synthesis after oral administration ([3]; 20 μg intragastric TID): ineffective; also recorded: inhibits IgE synthesis slightly, if at all
IgE ± SD ([3]; day 8 (stimulated control 5792, unstimulated 1015)): 3724 ± 1361 ng/mL
IgE ± SD ([3]; day 10 (stimulated control 1498)): 1496 ± 219 ng/mL
IgE ± SD [3, 12]: 1094 ± 107 ng/mL
ED50 IgE Inhibition [4]: > 45.0 μg/mouse/TID
dosage to achieve 50% inhibition of IgE ([4]; text of Example 28): greater than 45 μg/mouse
inhibition of IgE in vitro [2]: exhibit inhibition of IgE in vitro
immunosuppressive effects in vitro [5]: Immunosuppressive effects of prostaglandins in vitro has been demonstrated

CCCCCCC(C)(O)C/C=C/[C@H]1[C@H](O)CC(=O)[C@@H]1CCCCCCC(=O)OC (mixture of isomers) [(±) methyl-20-ethyl-11α,16-dihydroxy-16-methyl-9-oxoprost-13E-en-1-oate]
de novo IgE synthesis ([1]; 20 μg days 3 and 4, Example 24): inhibits de novo IgE synthesis
IgE ± SD ([1]; Table 13, 20 μg days 3 and 4, day 8 (control 3653)): < 800 ng/mL
IgE inhibition ([1]; summary statement): excellent IgE inhibition
ED50 IgE Inhibition [4]: 1.0 μg/mouse/TID
diarrhea side effects [6]: essentially free of detrimental diarrhea side effects
diarrhea side-effect ([6]; po): essentially free of the undesirable diarrhea side-effect
TD50 at 8 h [7]: 2.7 mg/kg

CCCCC(O)(CC)C/C=C/[C@H]1[C@H](O)CC(=O)[C@@H]1C/C=C\CCCC(=O)OC (mixture of isomers) [(±) methyl 11α,16-dihydroxy-16-ethyl-9-oxoprosta-5Z,13E-dien-1-oate]
IgE production ([1]; 20 μg IP 3x daily days 3 and 4, Table 6): IgE production is fully inhibited
IgE ± SD ([1]; Table 6, 20 μg IP 3x daily days 3 and 4, day 7 (PBS 4545)): 847 ± 67 ng/mL
IgE ± SD ([1]; Table 6, 20 μg IP 3x daily days 3 and 4, day 8 (PBS 11398)): 1264 ± 173 ng/mL
IgE ± SD ([1]; Table 6, 20 μg IP 3x daily days 3 and 4, day 9 (PBS 7114)): 1064 ± 106 ng/mL
IgE ± SD ([1]; Table 6, 20 μg IP 3x daily days 3 and 4, day 11 (PBS 1064)): 808 ± 16 ng/mL
IgE ± SD ([1]; Table 6, 20 μg IP 3x daily days 3 and 4, day -1 baseline before treatment): < 800 ng/mL
IgM synthesis ([8]; Table 6): IgM synthesis is not affected
IgM ± SD ([8]; day 7 (PBS 1488)): 1858 ± 107 µg/mL
IgM ± SD ([8]; day 8 (PBS 1690)): 2569 ± 803 µg/mL
IgM ± SD ([8]; day 9 (PBS 1396)): 2104 ± 276 µg/mL
IgM ± SD ([8]; day 11 (PBS 548)): 725 ± 199 µg/mL
IgM ± SD [8, 12]: 272 ± 19 µg/mL
cell surface density and distribution [9]: identical cell surface density and distribution as the control group
